In ChEMBL document CHEMBL6083263, “The Discovery of MORF-627, a Highly Selective Conformationally-Biased Zwitterionic Integrin αvβ6 Inhibitor for Fibrosis” (J Med Chem, 2024):
Each block holds one molecule with its values, some of them ahead of it. Active and inactive are the calls of the source. No cut-off for these calls is given here.

Columns and labels:
Mus musculus [1] = assay: Antifibrotic activity against BLM-induced po dosed C57BL/6J mouse acute lung fibrosis model assessed as reduction in modified ashcroft score administered twice daily for 14 days; assay type: functional; set-up: scale not given: the % may be the effect or the level left; conditions: time 14 day
Integrin alpha-V/beta-6 [2] = molecular target: T1, Integrin alpha-V/beta-6 (Homo sapiens, UniProt P06756+P18564); assay: Inhibition of Integrin alphaVbeta6 (unknown origin) mediated TGF-beta1 activation expressed in primary epithelial cells cocultured with idiopathic pulmonary fibroblast cells assessed as downregulation of COL3A1 mRNA expression measured after 72 hrs by qPCR assay; assay type: cell-based, Epithelial cell
[3] = Volume of distribution at steady state in C57BL/6 mouse at 1 mg/kg, iv measured upto 24 hrs by LC/MS-MS analysis; assay type: ADME, organism-based; conditions: in vivo, read-out: Vdss
[4] = AUCinfinity in C57BL/6 mouse at 1 mg/kg, iv measured upto 24 hrs by LC/MS-MS analysis; assay type: ADME, organism-based; conditions: in vivo
[5] = AUCinfinity in cynomolgus monkey at 1 mg/kg, iv measured upto 24 hrs by LC/MS-MS analysis; assay type: ADME, organism-based, Macaca fascicularis; conditions: in vivo
Integrin alpha-V/beta-1 = Integrin alpha-V/beta-1 (Homo sapiens, UniProt P05556+P06756); assay: Displacement of fluorescein labeled ACRGDGWC from human Integrin alphaVbeta1 preincubated for 15 mins followed by fluorescein labeled ACRGDGWC addition and measured after 1 hr by fluorescence polarization assay; assay type: protein-complex assay
[6] = Tmax in C57BL/6 mouse at 30 mg/kg, po measured upto 24 hrs by LC/MS-MS analysis; assay type: ADME, organism-based; conditions: in vivo
[7] = Volume of distribution at steady state in cynomolgus monkey at 1 mg/kg, iv measured upto 24 hrs by LC/MS-MS analysis; assay type: ADME, organism-based, Macaca fascicularis; conditions: in vivo, read-out: Vdss
Integrin alpha-V/beta-8 = Integrin alpha-V/beta-8 (Homo sapiens, UniProt P06756+P26012); assay: Displacement of fluorescein labeled GRGDLGRL from human Integrin alphaVbeta8 preincubated for 15 mins followed by fluorescein labeled GRGDLGRL addition and measured after 1 hr by fluorescence polarization assay; assay type: protein-complex assay
[8] = AUCinfinity in Beagle dog at 1 mg/kg, iv measured upto 24 hrs by LC/MS-MS analysis; assay type: ADME, organism-based, Canis lupus familiaris; conditions: in vivo
[9] = Oral bioavailability in Sprague-Dawley rat at 30 mg/kg measured upto 24 hrs by LC/MS-MS analysis; assay type: ADME, organism-based; conditions: in vivo
[10] = Half-life in C57BL/6 mouse at 30 mg/kg, po measured upto 24 hrs by LC/MS-MS analysis; assay type: ADME, organism-based; conditions: in vivo
[11] = Half-life in cynomolgus monkey at 1 mg/kg, iv measured upto 24 hrs by LC/MS-MS analysis; assay type: ADME, organism-based, Macaca fascicularis; conditions: in vivo
Mus musculus [12] = assay: Antifibrotic activity against BLM-induced C57BL/6J mouse acute lung fibrosis model assessed as reduction in modified ashcroft score at 1 to 10 mg/kg, po administered twice daily for 14 days; assay type: functional; set-up: scale not given: the % may be the effect or the level left; conditions: dose 1-10 mg/kg, time 14 day
Integrin alpha-V/beta-6 [13] = molecular target: T1, Integrin alpha-V/beta-6; assay: Binding affinity to human Integrin alphaVbeta6 overexpressed in HEK293 cells incubated for 15 mins in presence of human serum by flow cytometry assay; assay type: cell-based
Integrin alpha-V/beta-6 [14] = molecular target: T1, Integrin alpha-V/beta-6; assay: Inhibition of Integrin alphaVbeta6 (unknown origin) mediated TGF-beta1 activation expressed in primary epithelial cells cocultured with idiopathic pulmonary fibroblast cells assessed as downregulation of FN mRNA expression measured after 72 hrs by qPCR assay; assay type: cell-based, Epithelial cell
[15] = Oral bioavailability in Sprague-Dawley rat at 10 mg/kg measured upto 24 hrs by LC/MS-MS analysis; assay type: ADME, organism-based; conditions: in vivo
[16] = Clearance in cynomolgus monkey at 1 mg/kg, iv measured upto 24 hrs by LC/MS-MS analysis; assay type: ADME, organism-based, Macaca fascicularis; conditions: in vivo
[17] = Fraction of compound absorbed into portal vein (FaFg) in Sprague-Dawley rat at 30 mg/kg, po measured upto 24 hrs by LC/MS-MS analysis; assay type: ADME, organism-based; conditions: in vivo
[18] = Cmax in Sprague-Dawley rat at 30 mg/kg, po measured upto 24 hrs by LC/MS-MS analysis; assay type: ADME, organism-based; conditions: in vivo
Mus musculus [19] = assay: Antifibrotic activity against BLM-induced C57BL/6J mouse acute lung fibrosis model assessed as reduction in total collagen deposition at 3 mg/kg, po administered twice daily for 14 days; assay type: functional, organism-based; conditions: time 14.0 day
[20] = Half-life in cynomolgus […] at 5 mg/kg, po measured upto 24 hrs by LC/MS-MS analysis; assay type: ADME, organism-based, Macaca fascicularis; conditions: in vivo
[21] = Fraction of compound absorbed into portal vein (FaFg) in cynomolgus monkey at 30 mg/kg, po measured upto 24 hrs by LC/MS-MS analysis; assay type: ADME, organism-based, Macaca fascicularis; conditions: in vivo
[22] = Octanol/water partition coefficient, logD of the compound; assay type: physicochemical
[23] = Volume of distribution at steady state in Sprague-Dawley rat at 1 mg/kg, iv measured upto 24 hrs by LC/MS-MS analysis; assay type: ADME, organism-based; conditions: in vivo, read-out: Vdss
[24] = Half-life in Sprague-Dawley rat at 30 mg/kg, po measured upto 24 hrs by LC/MS-MS analysis; assay type: ADME, organism-based; conditions: in vivo
[25] = Volume of distribution at steady state in Beagle dog at 1 mg/kg, iv measured upto 24 hrs by LC/MS-MS analysis; assay type: ADME, organism-based, Canis lupus familiaris; conditions: in vivo, read-out: Vdss
[26] = AUCinfinity in Sprague-Dawley rat at 30 mg/kg, po measured upto 24 hrs by LC/MS-MS analysis; assay type: ADME, organism-based; conditions: in vivo
[27] = Clearance in C57BL/6 mouse at 1 mg/kg, iv measured upto 24 hrs by LC/MS-MS analysis; assay type: ADME, organism-based; conditions: in vivo
[28] = Half-life in Beagle dog at 1 mg/kg, iv measured upto 24 hrs by LC/MS-MS analysis; assay type: ADME, organism-based, Canis lupus familiaris; conditions: in vivo
Integrin alpha-V/beta-6 [29] = molecular target: T1, Integrin alpha-V/beta-6; assay: Inhibition of Integrin alphaVbeta6 (unknown origin) mediated TGF-beta1 activation expressed in HEK293 cells cocultured with MLEC cells expressing luciferase reporter; assay type: cell-based
[30] = Tmax in cynomolgus […] at 5 mg/kg, po measured upto 24 hrs by LC/MS-MS analysis; assay type: ADME, organism-based, Macaca fascicularis; conditions: in vivo
[31] = Clearance in Sprague-Dawley rat at 1 mg/kg, iv measured upto 24 hrs by LC/MS-MS analysis; assay type: ADME, organism-based; conditions: in vivo
[32] = AUCinfinity in cynomolgus […] at 5 mg/kg, po measured upto 24 hrs by LC/MS-MS analysis; assay type: ADME, organism-based, Macaca fascicularis; conditions: in vivo
Integrin alpha-V/beta-6 [33] = molecular target: T1, Integrin alpha-V/beta-6; assay: Inhibition of Integrin alphaVbeta6 (unknown origin) mediated TGF-beta1 activation expressed in primary epithelial cells cocultured with idiopathic pulmonary fibroblast cells assessed as downregulation of COL1A1 mRNA expression measured after 72 hrs by qPCR assay; assay type: cell-based, Epithelial cell
[34] = Cmax in cynomolgus […] at 5 mg/kg, po measured upto 24 hrs by LC/MS-MS analysis; assay type: ADME, organism-based, Macaca fascicularis; conditions: in vivo
[35] = Cmax in C57BL/6 mouse at 30 mg/kg, po measured upto 24 hrs by LC/MS-MS analysis; assay type: ADME, organism-based; conditions: in vivo
Mus musculus [36] = assay: Antifibrotic activity against BLM-induced C57BL/6J mouse acute lung fibrosis model assessed as reduction in collagen fiber density at 3 mg/kg, po administered twice daily for 14 days; assay type: functional, organism-based; conditions: time 14.0 day
[37] = AUCinfinity in Sprague-Dawley rat at 1 mg/kg, iv measured upto 24 hrs by LC/MS-MS analysis; assay type: ADME, organism-based; conditions: in vivo
[38] = Oral bioavailability in C57BL/6 mouse at 30 mg/kg measured upto 24 hrs by LC/MS-MS analysis; assay type: ADME, organism-based; conditions: in vivo
Mus musculus [39] = assay: Antifibrotic activity against BLM-induced C57BL/6J mouse acute lung fibrosis model assessed as reduction in collagen structure index at 3 mg/kg, po administered twice daily for 14 days; assay type: functional, organism-based; conditions: time 14.0 day
Integrin alpha-V/beta-6 [40] = molecular target: T1, Integrin alpha-V/beta-6; assay: Displacement of fluorescein labeled GRGDLGRL from human Integrin alphaVbeta6 preincubated for 15 mins followed by fluorescein labeled GRGDLGRL addition and measured after 1 hr by fluorescence polarization assay; assay type: protein-complex assay
[41] = Fraction of compound absorbed into portal vein (FaFg) in C57BL/6 mouse at 30 mg/kg, po measured upto 24 hrs by LC/MS-MS analysis; assay type: ADME, organism-based; conditions: in vivo
[42] = AUCinfinity in C57BL/6 mouse at 30 mg/kg, po measured upto 24 hrs by LC/MS-MS analysis; assay type: ADME, organism-based; conditions: in vivo
[43] = Half-life in C57BL/6 mouse at 1 mg/kg, iv measured upto 24 hrs by LC/MS-MS analysis; assay type: ADME, organism-based; conditions: in vivo
Mus musculus [44] = assay: Antifibrotic activity against BLM-induced C57BL/6J mouse acute lung fibrosis model assessed as reduction in picrosirius red positive area at 1 to 10 mg/kg, po administered twice daily for 14 days; assay type: functional, organism-based; conditions: dose 1-10 mg/kg, time 14.0 day
[45] = Tmax in Sprague-Dawley rat at 30 mg/kg, po measured upto 24 hrs by LC/MS-MS analysis; assay type: ADME, organism-based; conditions: in vivo
Mus musculus [46] = assay: Antifibrotic activity against BLM-induced C57BL/6J mouse acute lung fibrosis model assessed as reduction in pSMAD2:total protein ratio at 0.1 to 100 mg/kg, po administered twice daily for 3 days; assay type: functional, organism-based; conditions: dose 0.1-100 mg/kg, time 3.0 day
[47] = Half-life in Sprague-Dawley rat at 1 mg/kg, iv measured upto 24 hrs by LC/MS-MS analysis; assay type: ADME, organism-based; conditions: in vivo
[48] = Oral bioavailability in cynomolgus […] at 5 mg/kg measured upto 24 hrs by LC/MS-MS analysis; assay type: ADME, organism-based, Macaca fascicularis; conditions: in vivo
Mus musculus [49] = assay: Antifibrotic activity against BLM-induced po dosed C57BL/6J mouse acute lung fibrosis model assessed as reduction in pSMAD2 level administered twice daily for 3 days; assay type: functional, organism-based; conditions: 72 h

T1 sequence (P06756 31-889 limits assumed): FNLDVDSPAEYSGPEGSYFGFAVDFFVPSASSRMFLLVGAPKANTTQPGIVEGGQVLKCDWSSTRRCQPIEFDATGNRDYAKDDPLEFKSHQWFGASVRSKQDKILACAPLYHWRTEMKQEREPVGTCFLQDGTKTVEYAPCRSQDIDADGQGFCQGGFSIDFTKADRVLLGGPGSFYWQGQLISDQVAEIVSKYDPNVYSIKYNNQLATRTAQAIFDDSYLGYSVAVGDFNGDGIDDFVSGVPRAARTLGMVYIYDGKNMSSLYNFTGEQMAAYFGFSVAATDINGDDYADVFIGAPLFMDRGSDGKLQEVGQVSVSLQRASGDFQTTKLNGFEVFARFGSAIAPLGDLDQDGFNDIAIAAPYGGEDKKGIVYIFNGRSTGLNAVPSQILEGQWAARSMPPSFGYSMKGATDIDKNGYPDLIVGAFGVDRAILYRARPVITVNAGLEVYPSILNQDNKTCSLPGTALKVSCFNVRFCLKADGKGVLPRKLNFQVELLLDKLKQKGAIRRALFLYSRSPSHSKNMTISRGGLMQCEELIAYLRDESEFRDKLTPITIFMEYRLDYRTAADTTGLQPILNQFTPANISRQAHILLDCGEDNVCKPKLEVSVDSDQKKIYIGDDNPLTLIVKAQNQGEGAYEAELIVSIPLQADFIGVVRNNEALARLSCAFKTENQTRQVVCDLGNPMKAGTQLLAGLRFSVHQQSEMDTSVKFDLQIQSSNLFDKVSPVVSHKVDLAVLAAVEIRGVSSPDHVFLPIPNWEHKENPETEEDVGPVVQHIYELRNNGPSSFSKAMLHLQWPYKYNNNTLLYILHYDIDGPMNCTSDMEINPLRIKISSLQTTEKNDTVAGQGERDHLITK
T1 sequence (P06756 891-1048 limits assumed): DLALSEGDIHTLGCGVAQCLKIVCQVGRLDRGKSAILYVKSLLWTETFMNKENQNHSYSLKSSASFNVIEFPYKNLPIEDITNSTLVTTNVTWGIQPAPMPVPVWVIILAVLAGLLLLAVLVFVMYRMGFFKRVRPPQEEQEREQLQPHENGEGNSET
T1 sequence (P18564 22-788 limits assumed): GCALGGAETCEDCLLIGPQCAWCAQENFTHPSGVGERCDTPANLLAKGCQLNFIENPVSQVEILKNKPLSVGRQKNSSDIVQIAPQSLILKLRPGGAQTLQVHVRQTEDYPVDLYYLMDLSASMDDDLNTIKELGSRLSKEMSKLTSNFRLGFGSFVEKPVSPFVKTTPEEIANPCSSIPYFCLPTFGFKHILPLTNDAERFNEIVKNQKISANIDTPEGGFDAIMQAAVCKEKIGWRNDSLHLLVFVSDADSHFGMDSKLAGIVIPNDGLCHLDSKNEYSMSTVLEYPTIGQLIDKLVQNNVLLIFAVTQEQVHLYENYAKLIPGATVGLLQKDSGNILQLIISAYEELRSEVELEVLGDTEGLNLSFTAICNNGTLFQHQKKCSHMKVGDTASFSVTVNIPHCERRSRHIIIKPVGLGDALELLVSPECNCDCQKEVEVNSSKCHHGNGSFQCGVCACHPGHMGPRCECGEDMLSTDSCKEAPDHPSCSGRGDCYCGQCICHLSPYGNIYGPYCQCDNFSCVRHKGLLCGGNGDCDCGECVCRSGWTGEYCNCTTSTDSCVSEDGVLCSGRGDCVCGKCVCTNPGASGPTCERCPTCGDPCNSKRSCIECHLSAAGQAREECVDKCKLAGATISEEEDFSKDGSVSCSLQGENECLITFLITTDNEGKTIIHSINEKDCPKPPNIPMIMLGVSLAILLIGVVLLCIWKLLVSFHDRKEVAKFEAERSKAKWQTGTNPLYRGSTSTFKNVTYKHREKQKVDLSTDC
Chain of Integrin alpha-V/beta-8 (P06756 31-889 limits assumed): as the sequence (P06756 31-889 limits assumed) above
Chain of Integrin alpha-V/beta-8 (P06756 891-1048 limits assumed): as the sequence (P06756 891-1048 limits assumed) above
Chain of Integrin alpha-V/beta-8 (P26012 43-769 limits assumed): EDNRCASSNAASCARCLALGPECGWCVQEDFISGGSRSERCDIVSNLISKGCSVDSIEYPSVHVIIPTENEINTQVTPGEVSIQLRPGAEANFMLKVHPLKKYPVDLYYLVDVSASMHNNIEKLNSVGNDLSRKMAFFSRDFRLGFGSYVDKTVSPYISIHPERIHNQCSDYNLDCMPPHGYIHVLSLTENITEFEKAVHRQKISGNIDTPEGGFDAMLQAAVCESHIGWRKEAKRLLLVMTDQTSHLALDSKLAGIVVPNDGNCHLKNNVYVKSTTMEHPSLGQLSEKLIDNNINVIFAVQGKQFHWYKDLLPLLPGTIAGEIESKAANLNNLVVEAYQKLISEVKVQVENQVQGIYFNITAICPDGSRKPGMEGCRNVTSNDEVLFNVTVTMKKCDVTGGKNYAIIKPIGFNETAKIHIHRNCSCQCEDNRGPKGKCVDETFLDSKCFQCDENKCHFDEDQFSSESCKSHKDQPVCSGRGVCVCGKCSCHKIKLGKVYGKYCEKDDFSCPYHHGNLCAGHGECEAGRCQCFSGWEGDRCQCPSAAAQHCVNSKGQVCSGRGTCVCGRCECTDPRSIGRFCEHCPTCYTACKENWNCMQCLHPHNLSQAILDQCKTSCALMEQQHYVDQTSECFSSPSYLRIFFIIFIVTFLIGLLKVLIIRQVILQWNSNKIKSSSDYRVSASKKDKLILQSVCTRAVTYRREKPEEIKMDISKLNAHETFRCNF
Chain of Integrin alpha-V/beta-1 (P05556 21-798 limits assumed): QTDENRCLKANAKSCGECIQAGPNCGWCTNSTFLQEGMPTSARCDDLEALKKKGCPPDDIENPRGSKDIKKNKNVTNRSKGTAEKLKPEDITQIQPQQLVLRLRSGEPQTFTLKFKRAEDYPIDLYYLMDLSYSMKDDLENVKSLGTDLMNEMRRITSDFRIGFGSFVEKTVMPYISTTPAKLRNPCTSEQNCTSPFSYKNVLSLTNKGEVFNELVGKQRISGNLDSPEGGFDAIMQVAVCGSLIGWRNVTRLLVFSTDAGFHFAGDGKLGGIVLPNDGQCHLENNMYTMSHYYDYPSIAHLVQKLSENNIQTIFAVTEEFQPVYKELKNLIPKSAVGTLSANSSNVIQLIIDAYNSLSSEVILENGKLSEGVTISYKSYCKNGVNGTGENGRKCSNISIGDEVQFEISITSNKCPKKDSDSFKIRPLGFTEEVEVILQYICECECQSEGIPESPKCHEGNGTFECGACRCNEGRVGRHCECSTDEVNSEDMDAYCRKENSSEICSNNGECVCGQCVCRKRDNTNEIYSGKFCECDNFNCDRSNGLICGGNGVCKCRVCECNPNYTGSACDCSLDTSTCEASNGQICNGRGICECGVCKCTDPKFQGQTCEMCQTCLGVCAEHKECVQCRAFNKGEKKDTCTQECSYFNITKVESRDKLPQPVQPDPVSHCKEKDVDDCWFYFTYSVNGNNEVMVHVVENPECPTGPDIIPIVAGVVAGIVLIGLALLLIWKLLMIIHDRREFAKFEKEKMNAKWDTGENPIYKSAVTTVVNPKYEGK
Chain of Integrin alpha-V/beta-1 (P06756 31-889 limits assumed): as the sequence (P06756 31-889 limits assumed) above
Chain of Integrin alpha-V/beta-1 (P06756 891-1048 limits assumed): as the sequence (P06756 891-1048 limits assumed) above

Compound: Cc1cccc(-c2[nH]c(C(C)(C)C)nc2-c2ccc3nccnc3c2)n1
Activity (Mus musculus [1]): 37%

IC50 (Integrin alpha-V/beta-6 [2]): 12.8 nM
Vd [3]: 2.07 L/kg
AUC(0-inf) [4]: 940 ng·h/mL
AUC(0-inf) [5]: 1590 ng·h/mL
IC50 (Integrin alpha-V/beta-1): 490 nM
Tmax [6]: 0.25 h
Vd [7]: 2.45 L/kg
IC50 (Integrin alpha-V/beta-8): 330 nM
AUC [8]: 2970 ng·h/mL
bioavailability [9]: 74%
t1/2 [10]: 2.6 h
half-life [11]: 4.9 h
IC50 (Integrin alpha-V/beta-6 [13]): 9.2 nM
IC50 (Integrin alpha-V/beta-6 [14]): 20.3 nM
bioavailability [15]: 22%
clearance [16]: 10.5 mL/min/kg
FaFg [17]: 123%
Cmax [18]: 14000 ng/mL
t1/2 [20]: 4.8 h
FaFg [21]: 21%
logD [22]: 2.2
Vd [23]: 3.1 L/kg
t1/2 [24]: 1.8 h
Vd [25]: 1.84 L/kg
AUC(0-inf) [26]: 14000 ng·h/mL
clearance [27]: 18 mL/min/kg
half-life [28]: 4.9 h
IC50 (Integrin alpha-V/beta-6 [29]): 2.63 nM
Tmax [30]: 1 h
clearance [31]: 28 mL/min/kg
AUC(0-inf) [32]: 1600 ng·h/mL
IC50 (Integrin alpha-V/beta-6 [33]): 1.8 nM
Cmax [34]: 540 ng/mL
Cmax [35]: 7600 ng/mL
AUC(0-inf) [37]: 610 ng·h/mL
bioavailability [38]: 66%
IC50 (Integrin alpha-V/beta-6 [40]): 1.1 nM
FaFg [41]: 83%
AUC(0-inf) [42]: 19000 ng·h/mL
half-life [43]: 1.9 h
Tmax [45]: 0.25 h
half-life [47]: 1.9 h
bioavailability [48]: 16%
IC50 (Mus musculus [49]): 8.3 nM
Compound: O=C(O)[C@H](c1cc(F)ccc1[C@@H]1CCC2(CC2)CO1)N1CC[C@@H](OCCCCc2ccc3c(n2)NCCC3)C1
Activity (Mus musculus [12]): 33%
Activity (Mus musculus [19]): Active
Activity (Mus musculus [36]): Active
Activity (Mus musculus [39]): Active
Activity (Mus musculus [44]): Active; No Statistical Significant Activity
Activity (Mus musculus [46]): Active; Showed Significant Activity At 10 To 30 Mg/Kg
